What was measured:
Format in all cases: in vivo, C57BL/6J male mice
[1] = Smoking cessation-associated weight gain (SCWG) model in mice
Text: (§1) Mice. Eight-weeks old C57BL/6J male mice were purchased from Harlan. All mice were maintained in the animal facility of the Weizmann Institute and acclimatized for two weeks before the initiation of experiments. Mice were fed on normal chow (NC) or switched to a high-fat diet (HFD, D12492, 60% kcal from fat, Research Diets)/ choline-deficient diet (CDD, rodent diet with 60 kcal % fat without added Choline) three days prior to the experimental starting point. […] For all experiments, the mice were assigned to each group based on their weight in order to create weight-matched groups and eliminate weight differences at the beginning of the experiments. Two weeks before experimental starting point, antibiotic-treated groups were given a combination of vancomycin (0.5 g/l), ampicillin (1 g/l), neomycin (1 g/l), and metronidazole (1 g/l) ad libitum in their drinking water, referred to as 4-way abx. […] Lean and fat mass was determined by nuclear magnetic resonance (NMR) using Bruker minispec LF50.mq7.5 MHZ live mice analyzer.
Cigarette Smoke Exposure. […] Smoke levels were measured at least twice daily. […]
(§2) Data extraction and compound identification- raw data was extracted, peak-identified and QC processed using Metabolon's hardware and software. […] The cut was then closed with sterile surgical clips and the mice were carefully monitored for any signs of stress, bleeding, pain, or abnormal behavior. […]

[2] = Weight change of naive HFD-consuming mice upon metabolite administration; conditions: naive HFD-consuming 10-week-old C57bl male mice
Text: as §1, with “experiments.” for “experiments. Two weeks before experimental starting point, antibiotic-treated groups were given a combination of vancomycin (0.5 g/l), ampicillin (1 g/l), neomycin (1 g/l), and metronidazole (1 g/l) ad libitum in their drinking water, referred to as 4-way abx.”
as §2
Importantly, the predicted levels of biosynthetic enzymes (PICRUSTt2, P542-PWY) of the choline to betaine pathway and the pathway's measured intermediary levels (Choline to Betaine) were altered in actively smoking mice (FIG. 1D). […]

[3] = Bomb calorimetry of stool (residual caloric content); conditions: three weeks into DMG or PBS administration; inversely correlates with intestinal energy harvest
Procedure: Bomb calorimetry. Mice were transferred to a clean single housed cage, fecal samples collected and stored at −80° C. Before use, samples were dried with FreeZone 4.5-liter cascade benchtop freeze dry system (Labconco) for 24 hours. Gross energy content was measured using a water handling system (6510) and a bomb calorimeter (6200) by Parr Instrument Co. The calorimeter energy equivalent factor was determined using benzoic acid standards.

Row | Structure (SMILES) | SCWG upon ACG supplementation ([1]; non-antibiotics-treated smoking-cessation mice, HFD-ACG vs HFD) | Weight gain under ACG consumption ([2]; 7500 mg N-Acetylglycine/kg diet, vs HFD-fed control) | Residual caloric content in stool [3] | SCWG upon DMG supplementation ([1]; antibiotics-treated smoking-cessation HFD-fed mice, DMG via osmotic pumps started prior to cessation, vs vehicle) | Weight change upon DMG administration ([2]; osmotic pumps, 100 mg/kg/day, 21 days, vs vehicle (PBS))
1 | CC(=O)NCC(=O)O [ACG, N-acetylglycine] | prevented SCWG | significantly lower weight gain | – | – | –
2 | CN(C)CC(=O)O [DMG, N,N-Dimethylglycine] | – | – | lower residual calories | restored SCWG | significant weight gain
